Structures can show the parent of a compound that is named as a salt. Where two headings read alike, the source gives them in different places. Marks after values point to notes of the source that are not given here.
Tests used:
[1] = test system: Huh7 cells expressing a subgenomic RNA replicon of Con1 (genotype 1b) sequence origin; test: microbe, parasite or virus in culture; format: cell-based, HCV
[2] = test system: HER1-2; settings: selective HER1 inhibitor (vs. HER1-2); cited from earlier work
[3] = in words; cited from earlier work
[4] = Hepatitis C virus, Huh-7, 48 h; read-out: IC50
[5] = Table 1; inhibition of luciferase activity, 48 hours
[6] = Table 1; inhibition of luciferase activity, 48 hours; read-out: IC50
[7] = Hepatitis C virus, Huh-7, 48 h; read-out: IC25 (values noted with an asterisk)

Work on `CC(=O)Nc1ccccc1OCCCCCOCC(=O)Nc1ccccc1` [2′,2″-(Pentamethylenedioxy)diacetanilide] yielded an IC50 [1, 4] of 3.14 µM.
In the case of `CC(=O)Nc1cccc(OCCCCCOc2cccc(NC(C)=O)c2)c1` [3′,3″-(Pentamethylenedioxy)diacetanilide], the “IC25 (values noted with an asterisk)” value [1, 5] is reported as 9.35*.
With `N#C/C(=C\c1ccc(O)c(O)c1)C(=O)NCc1ccccc1` [AG-490] the IC50 [1, 6] was 5.03 µM.
For `N#C/C(=C\c1ccc(O)c(O)c1)C(=O)Nc1ccccc1` [AG-494], the IC50 [2] is listed as 45 µM.
`Nc1ncnc2c1ncn2CCOCP(=O)(O)O` [Adefovir (e.g., dipivoxil), Adefovir] showed an IC50 ([1]; Table 3; inhibition of luciferase activity, 48 hours; read-out: IC50) of 0.319 µM.
Work on `Cc1ccc(/N=C/N(C)/C=N/c2ccc(C)cc2C)c(C)c1` [Amitraz] yielded an IC25 [1, 7] of 26.4 µM.
In the case of `CC(=O)OC[C@H]1O[C@@H]([S-])[C@H](OC(C)=O)[C@@H](OC(C)=O)[C@@H]1OC(C)=O.CCP(CC)CC.[Au+]` [Auranofin], the solubility [3] is given as “insoluble in water”.
In the case of `CC(C)NCC(O)COc1ccc(CCOCC2CC2)cc1` (stereo not drawn) [Betaxolol (e.g., hydrochloride), Betaxolol], the IC25 ([1]; Hepatitis C virus, Huh-7, 48 h, read-out: IC25 (values noted with an asterisk)) is reported as 29.4 µM.
`CCCC(=O)O[C@H]1CN2CC[C@H](O)[C@@H]2[C@@H](O)[C@@H]1O` [Celgosivir] showed an IC25 [1, 7] of 6.25 µM.
With `O=C1[C@H](CC[C@H](O)c2ccc(F)cc2)[C@@H](c2ccc(O)cc2)N1c1ccc(F)cc1` [Ezetimibe] the IC50 [1, 4] was 4.2 µM.
For `Clc1ccc(C(c2ccccc2Cl)C(Cl)Cl)cc1` (stereo not drawn) [Mitotane], the IC25 [1, 7] was 28.1 µM.
Work on `COc1ccc(C(=O)NCc2cccnc2)cc1C(=O)NCc1cccnc1` [Picotamide] yielded an IC25 [1, 7] of 28.7 µM.
Molecule `CCCCOc1ccc(OCCCN2CCOCC2)cc1` [Pramoxine (e.g., hydrochloride), Pramoxine] has an IC25 [1, 7] of 5.17 µM.
For `COc1ccc(CCN(C)CCCC(C#N)(c2ccc(OC)c(OC)c2)C(C)C)cc1OC` (stereo not drawn) [R(+)-Verapamil (e.g., hydrochloride), R(+)-Verapamil], the IC50 ([1]; Hepatitis C virus, Huh-7, 48 h) was 15.7 µM.
`CC(C)=CC[C@@H](O)C1=CC(=O)c2c(O)ccc(O)c2C1=O` [Shikonin] gave an IC25 [1, 7] of 26.4 µM.
In the case of `CO[C@H]1C[C@@H]2CC[C@@H](C)[C@@](O)(O2)C(=O)C(=O)N2CCCC[C@H]2C(=O)O[C@H]([C@H](C)C[C@@H]2CC[C@@H](O)[C@H](OC)C2)CC(=O)[C@H](C)/C=C(\C)[C@@H](O)[C@@H](OC)C(=O)[C@H](C)C[C@H](C)/C=C/C=C/C=C/1C` [Sirolimus], the IC25 [1, 7] is reported as 0.005 µM.
With `N#C/C(=C\c1ccc(O)c(O)c1)C(N)=S` [Tyrphostin 47] the “IC25 (values noted with an asterisk)” value [1, 5] was 18.3*.
With `O=C1CC(=O)c2c(Cl)c(Cl)c(Cl)c(Cl)c21` [UCH-L3 inhibitor] the “IC25 (values noted with an asterisk)” value ([1]; Table 1; inhibition of luciferase activity, 48 hours; in µM) was 19.7*.
Molecule Beta Escin has an IC50 [1, 6] of 4.27 µM.
Work on Chlorophyllin yielded an IC50 [1, 6] of 1.3 µM.
Gramicidin showed an IC50 [1, 6] of 0.017 µM.
Manganese gluconate gave an IC50 ([1]; read-out: IC50) of 24.7 µM.
Tunicamycin showed an IC50 ([1]; Table 2; inhibition of luciferase activity, 48 hours; read-out: IC50) of 0.107 µM.
Vitamin B12 showed an IC50 [1, 6] of 8.28 µM.
